This note sets out measurements from patent publication US10765651B2, “Co-crystals of substituted glycine and uses thereof” (SyneuRx International (Taiwan) Corp., priority 2017, dated 2020).

Series [1] can be described thus: Hygroscopicity test, condition 2 (humidity chamber, weight change). It is filed as physicochemical. The conditions noted are these: for Weight change (%): dry before (change on drying to 0 hr weight).
Series [2] can be described thus: Hygroscopicity test, condition 3 (dynamic vapor sorption, 0 to 90 to 0% RH). It is filed as physicochemical. Conditions: DVS, 25° C. On the procedure: Measurement were taken from 0 to 90 to 0% RH at 25° C. with 10% RH per step with equilibration set to dm/dt+0.01%/min for 10 min or 180 min/step.
Series [3] can be described thus: Hygroscopicity test of fumaric acid co-crystals under ambient conditions. It is filed as physicochemical. The procedure: 0.1 to 0.5 g of each of 1:1, 2:1, 3:1, and 6:1 N-methylglycine co-crystals were placed in the vial under the ambient conditions. The weight changes at various time points of each co-crystal were measured and illustrated in Table 4 below.
The conditions of series [4]: 70-75% RH, room temperature, 3 days.
Where [5] appears, read: 30° C., 75% RH, 5 hr, listed as 1:1 N-methylglycine:DL-tartaric acid co-crystal.
Setting [6] is: 30° C., 75% RH, 72 hr, listed as 2:1 N-methylglycine:L-tartaric acid co-crystal.

Turning to `CNCC(=O)O.O=C(O)C(O)C(O)C(=O)O` (racemic) [N-MG/DL-TA = 1/1, N-methylglycine:DL-tartaric acid 1:1 co-crystal], the “Weight” value in series [1] (30° C., 75% RH, 0 hr) is 0.1302 g; in series [1] (30° C., 75% RH, 1 hr), 0.1349 g; in series [1] (30° C., 75% RH, 2 hr) it was 0.1399 g; in series [1] (30° C., 75% RH, 3 hr), 0.1469 g; in series [1] (30° C., 75% RH, 5 hr), 0.1545 g; in series [1] (30° C., 75% RH, 24 hr), 0.1819 g. Further, the “Weight” value in series [1] (30° C., 75% RH, 48 hr) came out at 0.1819 g; in series [1] (30° C., 75% RH, 72 hr), 0.1823 g; in series [1] (dry before), 0.1305 g. Also, the “Weight change (%), water absorbed” value is “(+3.6%)” in series [1] (30° C., 75% RH, 1 hr); “(+7.4%)” in series [1] (30° C., 75% RH, 2 hr); “(+12.8%)” in series [1] (30° C., 75% RH, 3 hr); “(+18.7%)” in series [1] (30° C., 75% RH, 5 hr); 18.7% in series [1] (setting [5]); “(+39.7%)” in series [1] (30° C., 75% RH, 24 hr). For the same compound, the “Weight change (%), water absorbed” value in series [1] (30° C., 75% RH, 48 hr) was “(+39.7%)”; in series [1] (30° C., 75% RH, 72 hr) it was “(+40.0%)”. The “Outward (appearance)” value in series [1] (30° C., 75% RH, 2 hr) is “Wet”; in series [1] (30° C., 75% RH, 5 hr) it was “Partial”; in series [1] (setting [5]) it was “started to turn into a partial liquid”; in series [1] (30° C., 75% RH, 24 hr) it was 50%; in series [1] (dry before), “White”. Also, the “Hygroscopicity comparison” value in series [1] (30° C., 75% RH, listed as 1:1 N-methylglycine:DL-tartaric acid co-crystal) is on record as “much less hygroscopic than 2:1 N-methylglycine:DL-tartaric acid co-crystal”. Also, in series [1], the “Weight change (%)” value is given as “(−0.2%)”.

With `CNCC(=O)O.CNCC(=O)O.O=C(O)C(O)C(O)C(=O)O` (racemic) [N-MG/DL-TA = 2/1, N-methylglycine:DL-tartaric acid 2:1 co-crystal], the “Change In Mass (%)” value in series [2] (RH 0%) was 0.00%; in series [2] (RH 10%) it was 0.15%; in series [2] (RH 20%) it was 0.21%; in series [2] (RH 30%), 0.26%; in series [2] (RH 40%) it was 0.77%; in series [2] (RH 60%), 2.03%. The “Change In Mass (%)” value in series [2] (RH 70%) came out at 3.12%; in series [2] (RH 80%), 8.12%; in series [2] (RH 90%), 30.35%. In addition, the “Weight” value turned out to be 0.1628 g in series [1] (30° C., 75% RH, 0 hr); 0.1695 g in series [1] (30° C., 75% RH, 1 hr); 0.1768 g in series [1] (30° C., 75% RH, 2 hr); 0.1816 g in series [1] (30° C., 75% RH, 3 hr); 0.1877 g in series [1] (30° C., 75% RH, 5 hr); 0.2374 g in series [1] (30° C., 75% RH, 24 hr). The “Weight” value in series [1] (30° C., 75% RH, 48 hr) is on record as 0.2423 g; in series [1] (30° C., 75% RH, 72 hr), 0.2441 g; in series [1] (dry before) it was 0.1628 g. Besides, the “Weight change (%), water absorbed” value is on record as “(+4.1%)” in series [1] (30° C., 75% RH, 1 hr); “(+8.6%)” in series [1] (30° C., 75% RH, 2 hr); “(+11.5%)” in series [1] (30° C., 75% RH, 3 hr); “(+15.3%)” in series [1] (30° C., 75% RH, 5 hr); “(+45.8%)” in series [1] (30° C., 75% RH, 24 hr); “(+48.8%)” in series [1] (30° C., 75% RH, 48 hr). Also, the “Weight change (%), water absorbed” value in series [1] (30° C., 75% RH, 72 hr) is reported as “(+49.9%)”. In addition, the “Outward (appearance)” value in series [1] (30° C., 75% RH, 2 hr) is listed as “Wet”; in series [1] (30° C., 75% RH, 5 hr), “Partial”; in series [1] (30° C., 75% RH, 24 hr), “Liquid”; in series [1] (dry before) it was “White”. Also, the “Weight change (%)” value in series [1] is “(−0%)”.

In the case of `CNCC(=O)O.CNCC(=O)O.O=C(O)C(O)C(O)C(=O)O` (racemic) [N-methylglycine:DL-tartaric acid 2:1 co-crystal], the “Change In Mass (%)” value was 3.12% in series [2] (RH 70%) and 30.35% in series [2] (RH 90%).

Turning to `CNCC(=O)O.CNCC(=O)O.O=C(O)C(O)C(O)C(=O)O` [N-MG/D-TA = 2/1, N-methylglycine:D-tartaric acid 2:1 co-crystal], the “Change In Mass (%)” value in series [2] (RH 0%) worked out at 0.00%; in series [2] (RH 10%), 0.02%; in series [2] (RH 20%), 0.04%; in series [2] (RH 30%) it was 0.07%; in series [2] (RH 40%), 0.10%; in series [2] (RH 50%), 0.15%. The “Change In Mass (%)” value is given as 0.20% in series [2] (RH 60%), 0.31% in series [2] (RH 70%), 0.60% in series [2] (RH 80%) and 14.27% in series [2] (RH 90%).

Turning to `CNCC(=O)O.O=C(O)/C=C/C(=O)O` [N-MG/FA = 1/1, N-methylglycine:fumaric acid (1:1 co-crystal)], the “Hygroscopicity comparison” value in series [3] is “much less hygroscopic than the 2:1, 3:1, and 6:1 co-crystals”. Further, the “Change In Mass (%)” value turned out to be 0.48% in series [3] (1 hr); 0.67% in series [3] (2 hr); 0.57% in series [3] (3 hr); 0.57% in series [3] (4 hr); 0.57% in series [3] (5 hr); 0.96% in series [3] (21 hr). In addition, the “Change In Mass (%)” value in series [3] (24 hr), in series [3] (45 hr), in series [3] (48 hr) and in series [3] (96 hr) was 0.96% throughout.

Consider `CNCC(=O)O.CNCC(=O)O.O=C(O)/C=C/C(=O)O` [N-MG/FA = 2/1, N-methylglycine:fumaric acid (2:1 co-crystal)], for which the “Change In Mass (%)” value in series [3] (15 hr) is given as 5.81%; in series [3] (21 hr), 6.29%; in series [3] (45 hr), 7.08%; in series [3] (48 hr), 7.12%; in series [3] (64 hr), 7.49%.

Consider `CNCC(=O)O.CNCC(=O)O.CNCC(=O)O.O=C(O)/C=C/C(=O)O` [N-MG/FA = 3/1, N-methylglycine:fumaric acid (3:1 co-crystal)], for which the “Change In Mass (%)” value in series [3] (15 hr) is listed as 18.29%; in series [3] (21 hr), 20.78%; in series [3] (45 hr) it was 26.13%; in series [3] (48 hr) it was 26.37%; in series [3] (64 hr) it was 29.22%.

Take `CNCC(=O)O.CNCC(=O)O.CNCC(=O)O.CNCC(=O)O.CNCC(=O)O.CNCC(=O)O.O=C(O)/C=C/C(=O)O` [N-MG/FA = 6/1, N-methylglycine:fumaric acid (6:1 co-crystal)]: the “Change In Mass (%)” value in series [3] (15 hr) amounted to 18.30%; in series [3] (21 hr), 25.14%; in series [3] (45 hr), 47.59%; in series [3] (48 hr), 48.84%; in series [3] (64 hr) it was 56.36%.

For the compound `CNCC(=O)O.CNCC(=O)O.O=C(O)C(O)C(O)C(=O)O` [N-MG/L-TA = 2/1, N-methylglycine:L-tartaric acid 2:1 co-crystal], the “Change In Mass (%)” value in series [2] (RH 0%) is on record as 0.00%; in series [2] (RH 10%), 0.01%; in series [2] (RH 20%), 0.03%; in series [2] (RH 30%), 0.05%; in series [2] (RH 40%) it was 0.07%; in series [2] (RH 50%), 0.09%. The “Change In Mass (%)” value is 0.13% in series [2] (RH 60%), 0.18% in series [2] (RH 70%), 0.32% in series [2] (RH 80%) and 10.74% in series [2] (RH 90%). Further, in series [4], the “Appearance after exposure to high humidity” value was “turned into moisturized and somewhat sticky white solid”. Besides, the “Weight” value in series [1] (30° C., 75% RH, 0 hr) is recorded as 0.1455 g; in series [1] (30° C., 75% RH, 1 hr), 0.1462 g; in series [1] (30° C., 75% RH, 2 hr), 0.1463 g; in series [1] (30° C., 75% RH, 3 hr), 0.1464 g; in series [1] (30° C., 75% RH, 5 hr) it was 0.1465 g; in series [1] (30° C., 75% RH, 24 hr), 0.1465 g. Besides, the “Weight” value in series [1] (30° C., 75% RH, 48 hr) was determined as 0.1465 g; in series [1] (30° C., 75% RH, 72 hr), 0.1471 g; in series [1] (dry before) it was 0.1457 g. Further, the “Weight change (%), water absorbed” value in series [1] (30° C., 75% RH, 1 hr) is “(+0.4%)”; in series [1] (30° C., 75% RH, 2 hr), “(+0.5%)”; in series [1] (30° C., 75% RH, 3 hr), “(+0.6%)”; in series [1] (30° C., 75% RH, 5 hr), “(+0.7%)”; in series [1] (30° C., 75% RH, 24 hr) it was “(+0.7%)”; in series [1] (30° C., 75% RH, 48 hr), “(+0.7%)”. For the same compound, the “Weight change (%), water absorbed” value in series [1] (30° C., 75% RH, 72 hr) is recorded as “(+1.1%)”; in series [1] (setting [6]), 1.1%. The “Outward (appearance)” value in series [1] (30° C., 75% RH, 72 hr) was “Partial”; in series [1] (setting [6]) it was “turned into a partial liquid”; in series [1] (dry before), “White”. Further, the “Weight change (%)” value in series [1] is “(−0.1%)”.

Turning to `CNCC(=O)O.CNCC(=O)O.O=C(O)C(O)C(O)C(=O)O` [N-methylglycine:D-tartaric acid 2:1 co-crystal], the figures for the “Change In Mass (%)” value in series [2] (RH 70%) and in series [2] (RH 90%) were 0.31% and 14.27%, respectively.

`CNCC(=O)O.CNCC(=O)O.O=C(O)C(O)C(O)C(=O)O` [N-methylglycine:L-tartaric acid 2:1 co-crystal]: the “Change In Mass (%)” value in series [2] (RH 70%) was found to be 0.18%; in series [2] (RH 90%) it was 10.74%.
